Data set [1] concerns polyoma virus transformed BHK21/c13 cells, line S100T1.
For data set [2] the test system is unchanged. Nature of the data set: Collocation inhibition test: clonal growth in sparsely and densely seeded areas of a cell density gradient of S100T1 cells in soft agar (Exp 13, 17, 19-26).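 On Clonal growth, H high density area of cell gradient, High: grades rise with clonal growth.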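 On Clonal growth, H high density area of cell gradient, Low: grades rise with clonal growth.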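 On Clonal growth, H high density area of cell gradient, Medium: grades rise with clonal growth.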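 On Clonal growth, L low density area of cell gradient, High: grades rise with clonal growth and minus or plus-minus means none.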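 On Clonal growth, L low density area of cell gradient, Low: grades rise with clonal growth and minus or plus-minus means none.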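 On Clonal growth, L low density area of cell gradient, Medium: grades rise with clonal growth and minus or plus-minus means none.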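 On all read-outs here: soft agar cultures in 24-well plates with a cell density gradient in the top layer, compounds applied from DMSO stocks, clonal growth scored in sparse versus dense areas.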 The settings on record: for Significance: Exp 17 day 14.
The mark [3] stands for this setting: preliminary results, Exp 13-18, 21-26, high concentration.
The mark [4] stands for this setting: preliminary results, Exp 13-18, 21-26, low concentration.
Setting [5] is: preliminary results, Exp 13-18, 21-26, medium concentration.

Molecules are shown by their SMILES. Entries after “also recorded” stand apart in the source; their conditions may differ.

In the case of `COc1cc([C@@H]2c3cc4c(cc3[C@@H](O[C@@H]3O[C@@H]5CO[C@@H](C)O[C@H]5[C@H](O)[C@H]3O)[C@H]3COC(=O)[C@H]23)OCO4)cc(OC)c1O` [Etoposide, reference compound], the “Toxicity for body or dense cell populations” value in data set [1] was “yes”. Further, the “Inhibition of cells in crowded areas” value in data set [2] (Exp 17) is “induce the best inhibition of cells in crowded areas”. Besides, in data set [2] (Exp 17, 144000 S100T1 cells/well), the “Effect on growth in high- and low-density areas” value was “growth inhibition of both high and low-density areas; also recorded: significant inhibition of growth in crowded areas”. Besides, the “Clonal growth, results read on the day 14” value in data set [2] (Exp 17, a: close to densely seeded cell areas, High: Colchicine 1, Podophyllotoxin 3, Etoposide 200, 4-OH—OPB 6.7 μM in wells, DMSO 29.2 μl) is given as “(+)”; in data set [2] (Exp 17, a: close to densely seeded cell areas, Low: Colchicine 0.1, Podophyllotoxin 0.3, Etoposide 20, 4-OH—OPB 0.67 μM in wells, DMSO 1.16 μl) it was “+”; in data set [2] (Exp 17, a: close to densely seeded cell areas, Medium: Colchicine 0.3, Podophyllotoxin 0.9, Etoposide 60, 4-OH—OPB 2 μM in wells, DMSO 6.8 μl) it was “+”; in data set [2] (Exp 17, b: sparsely seeded areas in the same agar culture, High: Colchicine 1, Podophyllotoxin 3, Etoposide 200, 4-OH—OPB 6.7 μM in wells, DMSO 29.2 μl), “(+)”; in data set [2] (Exp 17, b: sparsely seeded areas in the same agar culture, Low: Colchicine 0.1, Podophyllotoxin 0.3, Etoposide 20, 4-OH—OPB 0.67 μM in wells, DMSO 1.16 μl), “(+)”; in data set [2] (Exp 17, b: sparsely seeded areas in the same agar culture, Medium: Colchicine 0.3, Podophyllotoxin 0.9, Etoposide 60, 4-OH—OPB 2 μM in wells, DMSO 6.8 μl), “(+)”. Also, the “Clones in sparsely seeded locations of the agar” value in data set [2] (Exp 17, compared with 4-OH-OPB) is on record as “allow the growth of a few small clones in sparsely seeded locations of the agar; also recorded: to allow the growth of a few small clones in sparsely”. Moreover, the Significance entry is “Possible” in data set [2] (a: close to densely seeded cell areas, High: Colchicine 1, Podophyllotoxin 3, Etoposide 200, 4-OH—OPB 6.7 μM in wells, DMSO 29.2 μl); “No” in data set [2] (a: close to densely seeded cell areas, Low: Colchicine 0.1, Podophyllotoxin 0.3, Etoposide 20, 4-OH—OPB 0.67 μM in wells, DMSO 1.16 μl); “No” in data set [2] (a: close to densely seeded cell areas, Medium: Colchicine 0.3, Podophyllotoxin 0.9, Etoposide 60, 4-OH—OPB 2 μM in wells, DMSO 6.8 μl); “Possible” in data set [2] (b: sparsely seeded areas, High: Colchicine 1, Podophyllotoxin 3, Etoposide 200, 4-OH—OPB 6.7 μM in wells, DMSO 29.2 μl); “Possible” in data set [2] (b: sparsely seeded areas, Low: Colchicine 0.1, Podophyllotoxin 0.3, Etoposide 20, 4-OH—OPB 0.67 μM in wells, DMSO 1.16 μl); “Possible” in data set [2] (b: sparsely seeded areas, Medium: Colchicine 0.3, Podophyllotoxin 0.9, Etoposide 60, 4-OH—OPB 2 μM in wells, DMSO 6.8 μl). In addition, the “Control of metastatic cells leaving tumour” value in data set [2] (ability of cells to leave a tumour, grow and infiltrate locally or grow in sparsely seeded areas, concluded from Exp 17) was “probably not”. For the same compound, the “Clonal growth, H high density area of cell gradient, High” value in data set [2] (setting [3]) is listed as “(+)”. The “Clonal growth, L low density area of cell gradient, High” value in data set [2] (setting [3]) was “(+)”. Besides, in data set [2] (setting [4]), the “Clonal growth, H high density area of cell gradient, Low” value is “+”. Further, the “Clonal growth, L low density area of cell gradient, Low” value in data set [2] (setting [4]) was “(+)”. For the same compound, the “Clonal growth, H high density area of cell gradient, Medium” value in data set [2] (setting [5]) is “+”. The “Clonal growth, L low density area of cell gradient, Medium” value in data set [2] (setting [5]) is reported as “(+)”. Besides, in data set [2] (single cells or very few cells spread to distant sites, concluded from Exp 17), the “Control of settlement of metastatic cells” value is listed as “partly”.
